How the values were obtained:
CB2 receptor = target: T1, CB2 receptor (Homo sapiens, UniProt P34972); experiment: radioligand displacement of [3H]-CP55940 on membranes; format: binding; conditions: read-out: % inhibition at 10 μM; none at 1 μM %
T1 construct: gene CNR2

5-HT1A receptor = target: T2, 5-HT1A receptor (Homo sapiens, UniProt P08908); experiment: radioligand displacement of [3H]-8-hydroxy-DPAT on membranes; supported by PathHunter β-arrestin PAM assay in CHO-K1 cells with human 5-HT1A; format: binding; conditions: read-out: % inhibition at 10 μM; 20% at 1 μM %
T2 construct: gene HTR1A
T2 sequence (P08908 1-422): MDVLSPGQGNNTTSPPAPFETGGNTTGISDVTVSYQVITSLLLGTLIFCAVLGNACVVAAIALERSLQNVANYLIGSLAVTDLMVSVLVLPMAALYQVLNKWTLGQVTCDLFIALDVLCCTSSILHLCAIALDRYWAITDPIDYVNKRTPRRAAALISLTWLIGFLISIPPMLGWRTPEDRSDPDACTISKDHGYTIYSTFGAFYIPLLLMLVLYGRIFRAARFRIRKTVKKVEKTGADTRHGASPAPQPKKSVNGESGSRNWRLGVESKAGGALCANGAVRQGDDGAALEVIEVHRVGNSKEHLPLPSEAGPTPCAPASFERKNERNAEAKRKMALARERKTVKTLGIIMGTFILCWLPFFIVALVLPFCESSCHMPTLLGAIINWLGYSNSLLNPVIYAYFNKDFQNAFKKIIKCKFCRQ

T1 sequence (P34972 whole entry): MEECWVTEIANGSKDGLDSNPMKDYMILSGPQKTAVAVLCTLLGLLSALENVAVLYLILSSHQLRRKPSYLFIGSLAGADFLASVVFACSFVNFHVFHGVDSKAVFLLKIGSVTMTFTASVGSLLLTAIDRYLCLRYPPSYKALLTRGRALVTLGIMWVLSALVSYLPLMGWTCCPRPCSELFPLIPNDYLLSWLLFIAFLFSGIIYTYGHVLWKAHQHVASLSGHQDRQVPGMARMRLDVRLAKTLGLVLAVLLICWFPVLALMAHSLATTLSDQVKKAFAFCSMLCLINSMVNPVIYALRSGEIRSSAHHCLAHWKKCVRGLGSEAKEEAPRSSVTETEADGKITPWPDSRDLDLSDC

CCCCCc1cc(O)c2c(c1)OC1(C)CCC3C1C2C3(C)C (racemic) [(±)-CBL]
inhibition at 10 µM (CB2 receptor): 68% | inhibition at 10 µM (5-HT1A receptor): 75%
